# Measured values: ChEMBL document CHEMBL3044898, “Alkoxyphenyl methanesulfonamides: synthesis, anti-inflammatory effect, and docking studies” (Med Chem Res, 2012)
# Experiments:
# [1] = tested on: Rattus norvegicus; assay: Anti-inflammatory activity in po dosed Rattus norvegicus Wistar (rat) assessed as inhibition of carrageenan-induced paw edema administered 30 min post carrageenan challenge measured at 5 hr; assay type: functional
# [2] = tested on: Rattus norvegicus; assay: Anti-inflammatory activity in Rattus norvegicus Wistar (rat) assessed as inhibition of carrageenan-induced paw edema at 75 mg/kg, po administered 30 min post carrageenan challenge measured at 5 hr relative to control; assay type: functional
# [3] = tested on: Rattus norvegicus; assay: Anti-inflammatory activity in Rattus norvegicus Wistar (rat) assessed as inhibition of carrageenan-induced paw edema at 25 mg/kg, po administered 30 min post carrageenan challenge measured at 5 hr relative to control; assay type: functional
# [4] = tested on: Rattus norvegicus; assay: Anti-inflammatory activity in Rattus norvegicus Wistar (rat) assessed as inhibition of carrageenan-induced paw edema at 5 mg/kg, po administered 30 min post carrageenan challenge measured at 5 hr relative to control; assay type: functional
# [5] = tested on: Rattus norvegicus; assay: Ulcerogenic activity in Rattus norvegicus Wistar (rat) assessed as length of lesion at 75 mg/kg, po after 6 hr (reference value: 0 mm); assay type: toxicity, organism-based; set-up: dose 75 mg/kg, route oral; conditions: in vivo
# [6] = tested on: Rattus norvegicus; assay: Ulcerogenic activity in Rattus norvegicus Wistar (rat) assessed as length of lesion at 25 mg/kg, po after 6 hr (reference value: 0 mm); assay type: toxicity, organism-based; set-up: dose 25 mg/kg, route oral; conditions: in vivo
# [7] = tested on: Rattus norvegicus; assay: Ulcerogenic activity in Rattus norvegicus Wistar (rat) assessed as length of lesion at 5 mg/kg, po after 6 hr (reference value: 0 mm); assay type: toxicity, organism-based; set-up: dose 5 mg/kg, route oral; conditions: in vivo
# [8] = tested on: Rattus norvegicus; assay: Anti-inflammatory activity in Rattus norvegicus Wistar (rat) assessed as inhibition of carrageenan-induced paw edema at 100 mg/kg, po administered 30 min post carrageenan challenge measured at 5 hr relative to control; assay type: functional
# [9] = tested on: Rattus norvegicus; assay: Ulcerogenic activity in Rattus norvegicus Wistar (rat) assessed as length of lesion at 100 mg/kg, po after 6 hr (reference value: 0 mm); assay type: toxicity, organism-based; set-up: dose 100 mg/kg, route oral; conditions: in vivo
# [10] = tested on: Rattus norvegicus; assay: Ulcerogenic activity in Rattus norvegicus Wistar (rat) assessed as length of lesion at 10 mg/kg, po after 6 hr (reference value: 0 mm); assay type: toxicity, organism-based; set-up: dose 10 mg/kg, route oral; conditions: in vivo
# [11] = tested on: Rattus norvegicus; assay: Anti-inflammatory activity in Rattus norvegicus Wistar (rat) assessed as inhibition of carrageenan-induced paw edema at 30 mg/kg, po administered 30 min post carrageenan challenge measured at 5 hr relative to control; assay type: functional
# [12] = tested on: Rattus norvegicus; assay: Ulcerogenic activity in Rattus norvegicus Wistar (rat) assessed as length of lesion at 30 mg/kg, po after 6 hr (reference value: 0 mm); assay type: toxicity, organism-based; set-up: dose 30 mg/kg, route oral; conditions: in vivo
SMILES,ED50 [1] [mg/kg],inhibition in vivo at 75 mg/kg [2] [%],inhibition in vivo at 25 mg/kg [3] [%],inhibition in vivo at 5 mg/kg [4] [%],Activity [5] [mm],Activity [6] [mm],Activity [7] [mm],inhibition in vivo at 100 mg/kg [8] [%],Activity [9] [mm],Activity [10] [mm],inhibition in vivo at 30 mg/kg [11] [%],Activity [12] [mm]
CC(=O)c1ccc(NS(C)(=O)=O)c(OC2CCCC2)c1,2.31,69.2,57.4,58.7,1,0,0,,,,,
CCCCCCCCOc1cc(C(C)=O)ccc1NS(C)(=O)=O,2.36,69.9,62.5,51.5,2,1,0,,,,,
CCOc1cc(C(C)=O)ccc1NS(C)(=O)=O,1.8,66.2,54.6,44,1,0,0,,,,,
CCCOc1cc(C(C)=O)ccc1NS(C)(=O)=O,2.25,67.2,62.1,56.6,1,1,0,,,,,
CC(=O)c1ccc(NS(C)(=O)=O)c(O)c1,,,,,,,,15.9,1,,,
COc1ccc2c(c1)c(CC(=O)O)c(C)n2C(=O)c1ccc(Cl)cc1 [INDOMETHACIN],2.2,,,,,,,,,19.4,,
CS(=O)(=O)c1ccc(C2=C(c3ccccc3)C(=O)OC2)cc1 [ROFECOXIB],2.61,,,,,,,,,,82.8,2
